Each compound was assayed against RIPK1 (recombinant GST-RIPK1 kinase domain, residues 1-327) (Homo sapiens (Human), UniProt Q13546) (assay: RIPK1-ADP-Glo Enzymatic Assay). Settings: ADP-Glo; 25 nM GST-RIPK1, 300 μM ATP; assay lower limit ~25 nM; read-out: RIPK1 V0 Ec50.
RIPK1 (recombinant GST-RIPK1 kinase domain, residues 1-327), sequence (Q13546 1-327): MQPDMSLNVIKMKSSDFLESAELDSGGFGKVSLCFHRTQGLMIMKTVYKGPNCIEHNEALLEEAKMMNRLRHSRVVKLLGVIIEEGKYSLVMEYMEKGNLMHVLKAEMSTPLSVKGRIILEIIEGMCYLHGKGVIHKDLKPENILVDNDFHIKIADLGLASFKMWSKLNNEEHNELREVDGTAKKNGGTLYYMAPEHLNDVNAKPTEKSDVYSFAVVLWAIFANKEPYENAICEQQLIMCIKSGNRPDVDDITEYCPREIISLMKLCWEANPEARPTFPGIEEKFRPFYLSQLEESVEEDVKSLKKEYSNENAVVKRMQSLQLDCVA
Type: biochemical
Outline: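 Compounds titrated 10-pt 1:3 from 100000 nM top (1% DMSO); 30 min preinc w/ 25 nM Sf21-expressed enzyme, RT; start w/ ATP (300 μM final) + dephos-MBP (3 μM); 150 min; ADP-Glo lumi; 4-param fit → EC50.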
For `Cc1ccccc1S(=O)(=O)N1CCC2(CC1)O[C@@H]1CC[C@@H](c3cc(F)cc(F)c3)N1C2=O` [Example 8.2, (5′S,7a′R)-5′-(3,5-difluorophenyl)-1-[(2-methylphenyl)sulfonyl] tetrahydro-3′H-spiro[piperidine-4,2′-pyrrolo[2,1-b][1,3]oxazol]-3′-one], the EC50 was 685 nM.
`O=C(c1cocn1)N1CCC2(CC1)O[C@@H]1CC[C@@H](c3cc(F)cc(F)c3)N1C2=O` [Example 5.30, (5′S,7a′R)-5′-(3,5-difluoro-phenyl)-1-(1-oxazole-4-carbonyl)tetrahydro-3′H-spiro[piperidine-4,2′-pyrrolo[2,1-b]oxazol]-3′-one] was tested, and the EC50 was 28.4 nM.
`O=C(c1cc(F)ccc1F)N1CCC2(CC1)O[C@@H]1CC[C@@H](c3ccccc3)N1C2=O` [Example 1.11, (5′S,7a′R)-1-(2,5-difluorobenzene-1-carbonyl)-5′-phenyltetrahydro-3′H-spiro[piperidine-4,2′-pyrrolo[2,1-b] [1,3]oxazol]-3′-one] was tested, and the EC50 was < 25 nM.
`O=C1N2[C@@H](CC[C@H]2c2ccccc2F)OC12CCN(c1cccc3ncnn13)CC2` [Example 4.253, (5′S,7a′R)-5′-(2-fluorophenyl)-1-([1,2,4]triazolo[1,5-a]pyridin-5-yl)tetrahydro-3′H-spiro[piperidine-4,2′-pyrrolo[2,1-b] [1,3]oxazol]-3′-one] was tested, and the EC50 was < 25 nM.
For `NC(=O)c1ccc(N2CCC3(CC2)O[C@@H]2CC[C@@H](c4ccccc4)N2C3=O)n2nccc12` [Example 4.155, 7-[(5′S,7a′R)-3′-oxo-5′-phenyltetrahydro-1H,3′H-spiro[piperidine-4,2′-pyrrolo[2,1-b] [1,3]oxazol]-1-yl]pyrazolo[1,5-a] pyridine-4-carboxamide], the EC50 was < 25 nM.
`O=C1N2[C@@H](CC[C@H]2c2cc(F)cc(F)c2)OC12CCN(S(=O)(=O)c1cccc(F)c1)CC2` [Example 8.4, (5′S,7a′R)-5′-(3,5-difluorophenyl)-1-[(3-fluorophenyl)sulfonyl] tetrahydro-3′H-spiro[piperidine-4,2′-pyrrolo[2,1-b][1,3]oxazol]-3′-one] showed an EC50 of 672 nM.
With `COc1nc(N2CCC3(CC2)O[C@@H]2CC[C@@H](c4cc(F)cc(F)c4)N2C3=O)ncc1F` [Example 4.21, (5′S,7a′R)-5′-(3,5-difluorophenyl)-1-(5-fluoro-4-methoxypyrimidin-2-yl)tetrahydro-3′H-spiro[piperidine-4,2′-pyrrolo[2,1-b] [1,3]oxazol]-3′-one] the EC50 was < 25 nM.
With `COc1ncnc(N2CCC3(CC2)O[C@@H]2CC[C@@H](c4ccccc4)N2C3=O)c1F` [Example 11.28, (5′S,7a′R)-1-(5-fluoro-6-methoxypyrimidin-4-yl)-5′-phenyltetrahydro-3′H-spiro[piperidine-4,2′-pyrrolo[2,1-b][1,3]oxazol]-3′-one] the EC50 was < 25 nM.
`CC1CN(c2cc(C#N)ncn2)CCC12O[C@@H]1CC[C@@H](c3ccccc3)N1C2=O` (stereo partly drawn) [Example 4.234, 6-[(4R,5′S,7a′R)-3-methyl-3′-oxo-5′-phenyltetrahydro-1H,3′H-spiro[piperidine-4,2′-pyrrolo[2,1-b] [1,3]oxazol]-1-yl]pyrimidine-4-carbonitrile] showed an EC50 of 56.5 nM.
`Cc1cnc(C(=O)N2CCC3(CC2)O[C@@H]2CC[C@@H](c4cc(F)cc(F)c4)N2C3=O)cn1` [Example 6.3, (5′S,7a′R)-5′-(3,5-difluorophenyl)-1-(5-methylpyrazine-2-carbonyl)tetrahydro-3′H-spiro[piperidine-4,2′-pyrrolo[2,1-b] [1,3]oxazol]-3′-one] was tested, and the EC50 was 60.1 nM.
With `O=C1N2[C@@H](CC[C@H]2c2ccccc2)OC12CCN(c1ncnc3ccsc13)CC2` [Example 4.37, (5′S,7a′R)-5′-phenyl-1-(thieno[3,2-d]pyrimidin-4-yl)tetrahydro-3′H-spiro[piperidine-4,2′-pyrrolo[2,1-b] [1,3]oxazol]-3′-one] the EC50 was < 25 nM.
With `N#Cc1ccc(N2CCC3(CC2)O[C@@H]2CC[C@@H](c4ccccc4)N2C3=O)n2ncnc12` [Example 4.261, 5-[(5′S,7a′R)-3′-oxo-5′-phenyltetrahydro-1H,3′H-spiro[piperidine-4,2′-pyrrolo[2,1-b] [1,3]oxazol]-1-yl][1,2,4]triazolo[1,5-a] pyridine-8-carbonitrile] the EC50 was < 25 nM.
`Cc1nccc(C(=O)N2CCC3(CC2)O[C@@H]2CC[C@@H](c4cc(F)cc(F)c4)N2C3=O)n1` [Example 6.95] showed an EC50 of 245 nM.
Work on `N#Cc1cc([C@@H]2CC[C@H]3OC4(CCN(C(=O)c5ccccc5)CC4)C(=O)N32)ccc1F` [Example 17.4, 5-((5′S,7a′R)-1-benzoyl-3′-oxotetrahydro-3′H-spiro[piperidine-4,2′-pyrrolo[2,1-b]oxazol]-5′-yl)-2-fluorobenzonitrile] yielded an EC50 of 196 nM.
With `Cc1nc(N2CCC3(CC2)O[C@@H]2CC[C@@H](c4cc(F)cc(F)c4)N2C3=O)ncc1OC(F)F` [Example 4.58, (5′S,7a′R)-1-[5-(difluoromethoxy)-4-methylpyrimidin-2-yl]-5′-(3,5-difluorophenyl)tetrahydro-3′H-spiro[piperidine-4,2′-pyrrolo[2,1-b] [1,3]oxazol]-3′-one] the EC50 was 45.9 nM.
In the case of `O=C(c1ncccc1Cl)N1CCC2(CC1)O[C@@H]1CC[C@@H](c3cc(F)cc(F)c3)N1C2=O` [Example 6.53, (5′S,7a′R)-1-(3-chloropyridine-2-carbonyl)-5′-(3,5-difluorophenyl)tetra-hydro-3′H-spiro [piperidine-4,2′-pyrrolo[2,1-b][1,3]-oxazol]-3′-one], the EC50 is reported as 147 nM.
Work on `O=C(c1cccc(C23CC(C2)C3)n1)N1CCC2(CC1)O[C@@H]1CC[C@@H](c3cc(F)cc(F)c3)N1C2=O` [Example 6.137, (5′S,7a′R)-1-[6-(bicyclo[1.1.1]pentan-1-yl)pyridine-2-car-bonyl]-5-(3,5-difluoro-phenyl)tetrahydro-3′H-spiro[piperidine-4,2′-pyrrolo[2,1-b] [1,3]oxazol]-3′-one] yielded an EC50 of 78.7 nM.
`Cc1nc(N2CCC3(CC2)O[C@@H]2CC[C@@H](c4ccccc4)N2C3=O)ccc1C#N` [Example 4.74, 2-methyl-6-[(5′S,7a′R)-3′-oxo-5′-phenyltetrahydro-1H,3′H-spiro[piperidine-4,2′-pyrrolo[2,1-b] [1,3]oxazol]-1-yl]pyridine-3-carbonitrile] was tested, and the EC50 was < 25 nM.
For `O=C(c1ccn2ccccc12)N1CCC2(CC1)O[C@@H]1CC[C@@H](c3cc(F)cc(F)c3)N1C2=O` [Example 5.68, (5′S,7a′R)-5′-(3,5-difluoro-phenyl)-1-(indolizine-1-carbonyl)tetrahydro-3′H-spiro[piperidine-4,2′-pyrrolo[2,1-b]oxazol]-3′-one], the EC50 was < 25 nM.
With `CC(=O)c1ccc(N2CCC3(CC2)O[C@@H]2CC[C@@H](c4ccccc4)N2C3=O)n2ncnc12` [Example 4.270, (5′S,7a′R)-1-(8-acetyl[1,2,4]triazolo[1,5-a]pyridin-5-yl)-5′-phenyltetrahydro-3′H-spiro[piperidine-4,2′-pyrrolo[2,1-b] [1,3]oxazol]-3′-one] the EC50 was < 25 nM.
`N#Cc1ccc(N2CCC3(CC2)O[C@@H]2CC[C@@H](c4ccccc4F)N2C3=O)n2ncnc12` [Example 4.249, 5-[(5′S,7a′R)-5′-(2-fluorophenyl)-3′-oxotetrahydro-1H,3′H-spiro[piperidine-4,2′-pyrrolo[2,1-b] [1,3]oxazol]-1-yl][1,2,4]triazolo[1,5-a] pyridine-8-carbonitrile] was tested, and the EC50 was < 25 nM.
`N#Cc1cncc([C@@H]2CC[C@H]3SC4(CCN(C(=O)c5ccccc5)CC4)C(=O)N32)c1` [Example 7.4, 5-[(5′S,7a′R)-1-(benzenecarbonyl)-3′-oxotetrahydro-3′H-spiro[piperidine-4,2′-pyrrolo[2,1-b][1,3]thiazol]-5′-yl]pyridine-3-carbonitrile] gave an EC50 of 108 nM.
`O=C(c1ccccc1)N1CCC2(CC1)C[C@@H]1OC[C@@H](c3ccccc3)N1C2=O` [Example 7.3, (3′R,7a′S)-1-(benzenecarbonyl)-3′-phenyltetrahydro-5′H-spiro[piperidine-4,6′-pyrrolo[2,1-b][1,3]oxazol]-5′-one] gave an EC50 of 102 nM.
With `CCOc1cnc(N2CCC3(CC2)O[C@@H]2CC[C@@H](c4ccccc4)N2C3=O)n2ncnc12` [Example 19.7, (5′S,7a′R)-1-(8-ethoxy[1,2,4]triazolo [1,5-c]pyrimidin-5-yl)-5′-phenyltetrahydro-3′H-spiro[piperidine-4,2′-pyrrolo[2,1-b][l,3]oxazol]-3′-one] the EC50 was 25 nM.
Work on `Cc1cc(C(=O)N2CCC3(CC2)O[C@@H]2CC[C@@H](c4cc(F)cc(F)c4)N2C3=O)ccc1C#N` [Example 5.18, 4-((5′S,7a′R)-5′-(3,5-difluorophenyl)-3′-oxo-tetrahydro-3′H-spiro [piperidine-4,2′-pyrrolo-[2,1-b]oxazole]-1-carbon-yl)-2-methylbenzonitrile] yielded an EC50 of 138 nM.
In the case of `O=C(c1nc(N2CCC3(CC2)O[C@@H]2CC[C@@H](c4cc(F)cc(F)c4)N2C3=O)ncc1F)N1CC(C(F)F)C1` [Example 7.8, (5′S,7a′R)-1-{4-[3-(difluoromethyl)azetidine-1-carbonyl]-5-fluoropyrimidin-2-yl}-5′-(3,5-difluorophenyl)tetrahydro-3′H-spiro[piperidine-4,2′-pyrrolo[2,1-b][1,3]oxazol]-3′-one], the EC50 is reported as < 25 nM.
In the case of `O=C(c1cnc2cccnn12)N1CCC2(CC1)O[C@@H]1CC[C@@H](c3cc(F)cc(F)c3)N1C2=O` [Example 6.16, (5′S,7a′R)-5′-(3,5-difluorophenyl)-1-(imidazo[1,2-b]-pyridazine-3-carbon-yl)tetrahydro-3′H-spiro[piperidine-4,2′-pyrrolo[2,1-b][1,3]oxazol]-3′-one], the EC50 is reported as 276 nM.
With `N#Cc1cc(C(=O)N2CCC3(CC2)O[C@@H]2CC[C@@H](c4cccc(F)c4)N2C3=O)ccc1F` [Example 6.113, 2-fluoro-5-[(5′S,7a′R)-5′-(3-fluorophenyl)-3′-oxotetrahydro-1H,3′H-spiro[piperidine-4,2′-pyrrolo[2,1-b][1,3]-oxazole]-1-carbonyl] benzonitrile] the EC50 was < 25 nM.

Reference: patent US12180226B2, “Spirotricycle RIPK1 inhibitors and methods of uses thereof” (Merck Sharp & Dohme LLC, priority 2021, dated 2024)
